According to PMC8550792, “Evolution of kinase polypharmacology across HSP90 drug discovery” (Cell Chemical Biology, 2021):

What was measured:
Assay in all cases: biochemical
Type in all cases: biochemical
382 unique human kinases [1] = target: T1, 382 unique human kinases (Homo sapiens, UniProt Q13163); conditions: MEK5, 10 uM; for remaining activity at 10 µM: read-out: % Enzyme Activity (relative to DMSO controls)
T1 construct: purchased Reaction Biology (HotSpot contract assay)
T1 sequence (Q13163 1-448): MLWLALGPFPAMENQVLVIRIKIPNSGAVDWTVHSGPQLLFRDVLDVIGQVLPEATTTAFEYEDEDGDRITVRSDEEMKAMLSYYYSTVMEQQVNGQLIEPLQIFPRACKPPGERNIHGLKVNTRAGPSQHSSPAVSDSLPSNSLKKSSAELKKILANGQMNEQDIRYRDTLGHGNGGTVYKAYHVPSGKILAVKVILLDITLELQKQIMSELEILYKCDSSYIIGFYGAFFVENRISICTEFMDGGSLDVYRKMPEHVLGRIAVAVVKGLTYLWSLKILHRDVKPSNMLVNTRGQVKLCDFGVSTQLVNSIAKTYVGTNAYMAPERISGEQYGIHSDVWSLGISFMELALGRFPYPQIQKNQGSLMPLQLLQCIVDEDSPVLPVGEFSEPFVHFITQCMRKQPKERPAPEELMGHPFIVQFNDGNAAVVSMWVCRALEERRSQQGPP

382 unique human kinases [2] = target: T2, 382 unique human kinases (Homo sapiens, UniProt P21802, K526E); conditions: for remaining activity at 10 µM: read-out: % Enzyme Activity (relative to DMSO controls)
T2 construct: purchased Reaction Biology (HotSpot contract assay)
T2 sequence (P21802 22-821 K526E): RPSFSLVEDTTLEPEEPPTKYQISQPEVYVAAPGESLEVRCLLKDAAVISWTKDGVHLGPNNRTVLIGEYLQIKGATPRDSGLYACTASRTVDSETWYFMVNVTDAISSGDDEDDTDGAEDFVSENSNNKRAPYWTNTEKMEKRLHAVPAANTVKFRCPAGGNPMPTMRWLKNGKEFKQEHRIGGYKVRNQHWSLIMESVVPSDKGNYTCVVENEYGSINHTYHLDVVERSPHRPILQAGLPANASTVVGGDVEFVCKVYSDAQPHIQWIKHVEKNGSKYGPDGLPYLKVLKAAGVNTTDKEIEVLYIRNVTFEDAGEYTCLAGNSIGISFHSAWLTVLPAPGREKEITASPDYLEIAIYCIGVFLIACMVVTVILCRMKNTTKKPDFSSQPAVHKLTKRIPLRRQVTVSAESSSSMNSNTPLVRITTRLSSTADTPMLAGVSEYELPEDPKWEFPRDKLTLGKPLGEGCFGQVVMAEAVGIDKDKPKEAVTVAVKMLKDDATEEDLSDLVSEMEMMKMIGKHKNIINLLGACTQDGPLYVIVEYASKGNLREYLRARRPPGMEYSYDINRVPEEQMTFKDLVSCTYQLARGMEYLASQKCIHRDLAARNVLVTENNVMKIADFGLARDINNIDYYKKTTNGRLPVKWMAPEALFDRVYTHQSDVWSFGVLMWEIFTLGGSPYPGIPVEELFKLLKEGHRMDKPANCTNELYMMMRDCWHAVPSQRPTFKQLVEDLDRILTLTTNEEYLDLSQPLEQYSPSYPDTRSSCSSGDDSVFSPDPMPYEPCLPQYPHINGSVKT

382 unique human kinases [3] = target: T3, 382 unique human kinases (Homo sapiens, UniProt Q13557); conditions: CAMK2d, 10 uM; for remaining activity at 10 µM: read-out: % Enzyme Activity (relative to DMSO controls)
T3 construct: purchased Reaction Biology (HotSpot contract assay)
T3 sequence (Q13557 whole entry): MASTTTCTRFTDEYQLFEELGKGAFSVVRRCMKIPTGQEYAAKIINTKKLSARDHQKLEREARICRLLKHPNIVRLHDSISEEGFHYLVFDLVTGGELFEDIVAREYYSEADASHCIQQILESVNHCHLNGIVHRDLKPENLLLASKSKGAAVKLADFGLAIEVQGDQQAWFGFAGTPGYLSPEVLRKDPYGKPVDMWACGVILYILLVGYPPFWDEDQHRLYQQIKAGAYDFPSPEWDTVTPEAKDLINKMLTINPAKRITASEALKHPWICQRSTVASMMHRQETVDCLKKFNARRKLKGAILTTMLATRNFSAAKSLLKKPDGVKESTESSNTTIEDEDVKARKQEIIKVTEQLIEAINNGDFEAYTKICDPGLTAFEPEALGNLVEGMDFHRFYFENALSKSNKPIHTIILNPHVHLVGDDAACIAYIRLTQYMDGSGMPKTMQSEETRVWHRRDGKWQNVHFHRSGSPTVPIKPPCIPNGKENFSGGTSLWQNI

382 unique human kinases [4] = target: T4, 382 unique human kinases (Homo sapiens, UniProt P22455, N535K); conditions: FGFR4 (N535K), 10 uM; for remaining activity at 10 µM: read-out: % Enzyme Activity (relative to DMSO controls)
T4 construct: purchased Reaction Biology (HotSpot contract assay)
T4 sequence (P22455 22-802 N535K): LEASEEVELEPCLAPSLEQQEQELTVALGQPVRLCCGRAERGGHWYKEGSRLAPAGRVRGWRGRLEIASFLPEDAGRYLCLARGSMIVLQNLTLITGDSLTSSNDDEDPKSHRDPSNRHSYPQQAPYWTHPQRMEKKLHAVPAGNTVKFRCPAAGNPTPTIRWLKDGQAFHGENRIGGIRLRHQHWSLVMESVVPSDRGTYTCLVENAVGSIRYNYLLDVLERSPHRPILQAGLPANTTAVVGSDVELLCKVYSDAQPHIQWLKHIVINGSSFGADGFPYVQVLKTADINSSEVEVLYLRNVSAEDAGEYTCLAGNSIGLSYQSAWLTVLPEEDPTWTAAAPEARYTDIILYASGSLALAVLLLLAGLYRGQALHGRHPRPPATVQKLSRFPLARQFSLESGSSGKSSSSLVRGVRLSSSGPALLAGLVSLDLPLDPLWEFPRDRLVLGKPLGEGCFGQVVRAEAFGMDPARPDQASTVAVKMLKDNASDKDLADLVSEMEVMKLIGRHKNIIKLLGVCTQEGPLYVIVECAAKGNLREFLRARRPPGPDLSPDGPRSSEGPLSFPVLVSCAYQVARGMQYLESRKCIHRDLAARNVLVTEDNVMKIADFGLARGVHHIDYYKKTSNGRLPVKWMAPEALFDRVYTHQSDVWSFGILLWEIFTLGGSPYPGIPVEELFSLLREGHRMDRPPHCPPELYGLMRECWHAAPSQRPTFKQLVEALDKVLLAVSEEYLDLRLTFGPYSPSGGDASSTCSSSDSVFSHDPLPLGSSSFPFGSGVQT

382 unique human kinases [5] = target: T5, 382 unique human kinases (Homo sapiens, UniProt Q96PY6); conditions: NEK1, 10 uM; for remaining activity at 10 µM: read-out: % Enzyme Activity (relative to DMSO controls)
T5 construct: purchased Reaction Biology (HotSpot contract assay)
T5 sequence (Q96PY6 1-1258): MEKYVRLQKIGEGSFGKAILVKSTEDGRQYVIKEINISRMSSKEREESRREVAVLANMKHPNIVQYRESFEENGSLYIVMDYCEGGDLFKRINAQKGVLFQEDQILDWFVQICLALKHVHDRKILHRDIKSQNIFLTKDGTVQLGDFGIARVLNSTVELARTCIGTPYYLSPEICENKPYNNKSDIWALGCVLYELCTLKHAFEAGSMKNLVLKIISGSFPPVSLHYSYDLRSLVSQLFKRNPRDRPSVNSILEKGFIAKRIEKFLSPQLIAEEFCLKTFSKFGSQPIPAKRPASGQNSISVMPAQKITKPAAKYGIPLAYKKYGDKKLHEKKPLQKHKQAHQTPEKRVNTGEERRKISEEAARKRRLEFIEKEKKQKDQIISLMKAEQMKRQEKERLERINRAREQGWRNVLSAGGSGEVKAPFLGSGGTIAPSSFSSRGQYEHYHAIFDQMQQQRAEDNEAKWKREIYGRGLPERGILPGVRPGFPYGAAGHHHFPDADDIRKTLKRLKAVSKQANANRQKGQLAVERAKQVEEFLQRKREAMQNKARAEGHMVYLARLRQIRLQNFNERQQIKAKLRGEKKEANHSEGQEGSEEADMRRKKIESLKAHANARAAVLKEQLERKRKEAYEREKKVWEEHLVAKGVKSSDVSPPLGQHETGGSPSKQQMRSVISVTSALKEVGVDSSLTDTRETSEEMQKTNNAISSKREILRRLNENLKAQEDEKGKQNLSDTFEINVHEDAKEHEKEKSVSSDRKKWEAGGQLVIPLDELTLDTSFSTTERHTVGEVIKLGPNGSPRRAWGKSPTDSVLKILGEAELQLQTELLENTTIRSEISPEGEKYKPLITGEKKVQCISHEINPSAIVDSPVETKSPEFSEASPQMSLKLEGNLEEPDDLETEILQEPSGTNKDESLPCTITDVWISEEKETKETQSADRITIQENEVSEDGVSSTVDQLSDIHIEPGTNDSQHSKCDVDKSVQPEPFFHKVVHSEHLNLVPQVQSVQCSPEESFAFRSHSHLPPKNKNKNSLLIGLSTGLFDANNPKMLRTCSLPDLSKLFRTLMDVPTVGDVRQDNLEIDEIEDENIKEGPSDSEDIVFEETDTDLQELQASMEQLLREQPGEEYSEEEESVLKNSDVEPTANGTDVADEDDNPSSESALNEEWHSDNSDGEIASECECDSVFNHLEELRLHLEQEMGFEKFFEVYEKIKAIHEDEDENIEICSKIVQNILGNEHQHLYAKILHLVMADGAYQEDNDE

382 unique human kinases [6] = target: T6, 382 unique human kinases (Homo sapiens, UniProt P43250); conditions: GRK6, 10 uM; for remaining activity at 10 µM: read-out: % Enzyme Activity (relative to DMSO controls)
T6 construct: purchased Reaction Biology (HotSpot contract assay)
T6 sequence (P43250 whole entry): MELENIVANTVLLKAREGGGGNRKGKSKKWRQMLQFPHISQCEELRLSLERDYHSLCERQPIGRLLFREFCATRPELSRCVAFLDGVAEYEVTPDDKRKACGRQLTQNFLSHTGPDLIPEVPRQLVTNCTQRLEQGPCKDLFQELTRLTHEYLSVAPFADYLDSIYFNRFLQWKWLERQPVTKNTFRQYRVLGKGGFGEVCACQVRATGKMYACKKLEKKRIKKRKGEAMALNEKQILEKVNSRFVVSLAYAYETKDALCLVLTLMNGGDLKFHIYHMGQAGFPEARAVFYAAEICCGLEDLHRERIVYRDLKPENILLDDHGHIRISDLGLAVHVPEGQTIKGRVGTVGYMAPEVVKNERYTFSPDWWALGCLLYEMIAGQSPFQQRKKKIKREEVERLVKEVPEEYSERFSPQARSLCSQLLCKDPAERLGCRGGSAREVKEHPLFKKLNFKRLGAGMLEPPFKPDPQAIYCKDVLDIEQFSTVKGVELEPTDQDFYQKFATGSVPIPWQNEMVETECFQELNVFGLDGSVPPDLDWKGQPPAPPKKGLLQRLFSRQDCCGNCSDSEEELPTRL

382 unique human kinases [7] = target: T7, 382 unique human kinases (Homo sapiens, UniProt O94806); conditions: PKCnu/PRKD3, [ATP] 30 µM, compound 10 uM; for remaining activity at 10 µM: read-out: % Enzyme Activity (relative to DMSO controls)
T7 construct: purchased Reaction Biology (HotSpot contract assay)
T7 sequence (O94806 1-890): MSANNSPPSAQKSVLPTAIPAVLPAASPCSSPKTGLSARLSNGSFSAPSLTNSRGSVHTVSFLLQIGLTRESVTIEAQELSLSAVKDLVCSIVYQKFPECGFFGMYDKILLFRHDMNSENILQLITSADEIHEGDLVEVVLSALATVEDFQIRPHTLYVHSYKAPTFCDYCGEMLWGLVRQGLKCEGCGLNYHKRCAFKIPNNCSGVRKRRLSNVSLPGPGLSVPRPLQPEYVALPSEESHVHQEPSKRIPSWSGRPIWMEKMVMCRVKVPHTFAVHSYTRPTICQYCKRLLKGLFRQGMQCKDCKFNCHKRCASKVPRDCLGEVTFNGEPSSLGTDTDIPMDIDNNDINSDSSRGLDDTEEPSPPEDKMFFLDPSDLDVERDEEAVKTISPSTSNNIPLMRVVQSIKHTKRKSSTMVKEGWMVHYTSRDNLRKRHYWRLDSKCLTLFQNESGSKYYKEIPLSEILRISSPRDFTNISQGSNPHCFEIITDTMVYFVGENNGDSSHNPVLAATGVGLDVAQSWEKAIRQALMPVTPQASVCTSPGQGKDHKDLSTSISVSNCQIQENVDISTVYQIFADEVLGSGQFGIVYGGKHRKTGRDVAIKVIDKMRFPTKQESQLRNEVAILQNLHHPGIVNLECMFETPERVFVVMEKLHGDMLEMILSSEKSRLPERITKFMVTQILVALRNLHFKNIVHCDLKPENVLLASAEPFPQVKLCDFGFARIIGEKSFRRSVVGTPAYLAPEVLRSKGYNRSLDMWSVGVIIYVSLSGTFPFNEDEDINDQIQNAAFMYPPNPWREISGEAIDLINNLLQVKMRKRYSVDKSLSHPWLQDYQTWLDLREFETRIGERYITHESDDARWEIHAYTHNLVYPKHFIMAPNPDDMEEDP

Row | SMILES | remaining activity at 10 µM (382 unique human kinases [1]) | remaining activity at 10 µM (382 unique human kinases [2]) | remaining activity at 10 µM (382 unique human kinases [3]) | % Enzyme Activity (relative to DMSO controls) (382 unique human kinases [4]) | remaining activity at 10 µM (382 unique human kinases [4]) | % Enzyme Activity (relative to DMSO controls) (382 unique human kinases [5]) | remaining activity at 10 µM (382 unique human kinases [5]) | % Enzyme Activity (relative to DMSO controls) (382 unique human kinases [6]) | remaining activity at 10 µM (382 unique human kinases [6]) | % Enzyme Activity (relative to DMSO controls) (382 unique human kinases [7]) | remaining activity at 10 µM (382 unique human kinases [7]) | % Enzyme Activity (relative to DMSO controls) (382 unique human kinases [1]) | % Enzyme Activity (relative to DMSO controls) (382 unique human kinases [2]) | % Enzyme Activity (relative to DMSO controls) (382 unique human kinases [3])
1 | CC(C)c1cc(-c2n[nH]c(=O)n2-c2ccc3c(ccn3C)c2)c(O)cc1O [Ganetespib (STA9090)] | 65.3% | 68.8% | 72.8% |  |  |  |  |  |  |  |  |  |  | 
2 | CCNC(=O)c1noc(-c2cc(C(C)C)c(O)cc2O)c1-c1ccc(CN2CCOCC2)cc1 [Luminespib] |  |  |  | 97.33% | 101% | 102.76% | 110% | 96.43% | 97.2% | 116.94% | 120% |  |  | 
3 | CCNC(=O)c1noc(-c2cc(C(C)C)c(O)cc2O)c1-c1ccc(CN2CCOCC2)cc1 [Luminespib (AUY-922)] | 100% | 102% | 89.9% |  |  |  |  |  |  |  |  | 99.65% | 99.92% | 89.83%
4 | CC(C)c1cc(-c2n[nH]c(=O)n2-c2ccc3c(ccn3C)c2)c(O)cc1O [Ganetespib] |  |  |  |  | 101% |  | 95.7% |  | 97.2% |  | 54.7% |  |  | 
